The target of one assay is human plasma kallikrein (Homo sapiens (Human), UniProt P03952). Briefly: Kallikrein inhibition assay (FLINT) utilizing a quenched AMC peptide substrate. In kind it is biochemical. The conditions noted are these: 30 min preincubation, kinetic reads over 30 min, Z-Gly-Pro-Arg-AMC substrate 50 μM; read-out: Kallikrein Kin Inh IC50. The procedure, abridged: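 Fluorogenic Z-Gly-Pro-Arg-AMC cleavage (50 μM substrate, 2 nM kallikrein, Tris pH 7.5, CaCl2, BSA, CHAPS, 2% DMSO) read kinetically at 340/440 nm for 30 min after 30-min compound pre-incubation. Compounds in 11-point 3-fold series from 1 μM; percent inhibition fitted to four-parameter equation for IC50.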
human plasma kallikrein, sequence (P03952 391-638): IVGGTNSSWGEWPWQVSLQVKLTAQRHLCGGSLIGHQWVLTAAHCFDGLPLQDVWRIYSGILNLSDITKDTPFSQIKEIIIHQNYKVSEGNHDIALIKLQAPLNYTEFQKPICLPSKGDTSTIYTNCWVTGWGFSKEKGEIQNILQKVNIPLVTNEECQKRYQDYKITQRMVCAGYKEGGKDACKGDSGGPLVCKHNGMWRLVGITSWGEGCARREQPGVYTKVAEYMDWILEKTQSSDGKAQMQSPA
human plasma kallikrein, sequence (P03952 20-390 partner): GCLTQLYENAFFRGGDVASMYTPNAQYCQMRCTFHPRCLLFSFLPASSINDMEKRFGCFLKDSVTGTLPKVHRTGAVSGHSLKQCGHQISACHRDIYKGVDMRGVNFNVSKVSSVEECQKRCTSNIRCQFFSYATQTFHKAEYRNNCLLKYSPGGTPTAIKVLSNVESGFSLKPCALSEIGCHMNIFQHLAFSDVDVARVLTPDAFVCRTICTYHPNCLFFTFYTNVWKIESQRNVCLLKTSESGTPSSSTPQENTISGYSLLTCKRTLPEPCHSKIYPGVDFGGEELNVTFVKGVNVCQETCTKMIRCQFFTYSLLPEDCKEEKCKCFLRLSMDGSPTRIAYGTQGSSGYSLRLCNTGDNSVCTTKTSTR

A further assay addresses Factor XIa (Homo sapiens (Human), UniProt P03951). Nature of the assay: Factor XIa inhibition assay (FLINT) utilizing a fluorophore-quencher pair peptide substrate. In kind it is biochemical. To be noted: 30 min preincubation, kinetic reads over 30 min, 5Fam-KLTRAETV-K5Tamra substrate 15 μM; read-out: FXIa Kin Inh IC50. The procedure, abridged: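 FXIa ([…]) preincubated 30 min with compound (11-point 3-fold dilution, top 100 nM, 2% DMSO), then 15 μM quenched FXI Arg146-based peptide added; Tris pH 7.5, CaCl2, BSA, CHAPS. Fluorescence 485/520 nm read kinetically every 5 min over 30 min at RT; IC50 by 4-parameter fit.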

Molecules are shown by their SMILES.

Factor XIa, sequence (P03951 388-625): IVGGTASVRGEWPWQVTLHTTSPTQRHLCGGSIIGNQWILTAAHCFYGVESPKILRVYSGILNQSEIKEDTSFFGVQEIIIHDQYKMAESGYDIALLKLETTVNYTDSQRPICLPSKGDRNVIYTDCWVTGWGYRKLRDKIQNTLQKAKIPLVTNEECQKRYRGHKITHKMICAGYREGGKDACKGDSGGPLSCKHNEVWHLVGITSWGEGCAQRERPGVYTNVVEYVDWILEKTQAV
Factor XIa, sequence (P03951 19-387 partner): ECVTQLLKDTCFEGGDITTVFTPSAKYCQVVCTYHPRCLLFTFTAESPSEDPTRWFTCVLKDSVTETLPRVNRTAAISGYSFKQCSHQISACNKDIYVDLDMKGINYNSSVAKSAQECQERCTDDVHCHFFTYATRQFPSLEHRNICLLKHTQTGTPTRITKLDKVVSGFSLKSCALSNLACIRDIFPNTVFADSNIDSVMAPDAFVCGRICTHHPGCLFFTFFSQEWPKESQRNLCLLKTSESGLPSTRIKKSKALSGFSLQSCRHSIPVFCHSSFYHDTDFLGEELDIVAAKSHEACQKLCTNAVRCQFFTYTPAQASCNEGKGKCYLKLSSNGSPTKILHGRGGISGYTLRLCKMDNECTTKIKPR

With `NC(=O)c1ccc(-c2cnc([C@@H]3CC[C@H]4CC(c5c(-n6cc(C(F)(F)F)nn6)ccc(Cl)c5F)=CC(=O)N43)[nH]2)cn1` (single isomer, unassigned) [Example 213], the IC50 at human plasma kallikrein was 197 nM; on Factor XIa, 39.4 nM.

Consider `NC(=O)c1ccc(-c2c[nH]c([C@@H]3CC[C@H]4CC(c5c(-n6cc(C(F)(F)F)nn6)ccc(Cl)c5F)=CC(=O)N43)n2)s1` (single isomer, unassigned) [Example 221], for which the half-maximal inhibitory concentration (IC50) at human plasma kallikrein amounted to 7.7 nM; on Factor XIa, 2.3 nM.

Take `O=C1C=C(c2c(-n3cnnn3)ccc(Cl)c2F)C[C@H]2CC[C@@H](c3ncc(-c4c[nH]nc4Cl)[nH]3)N12` (single isomer, unassigned) [Example 224]: the results for the concentration for half-maximal inhibition (IC50) on human plasma kallikrein and on Factor XIa were 8 nM and 0.5 nM, respectively.

On to `NC(=O)c1ccc(-c2cnc([C@@H]3CC[C@@H]4CC(c5c(-n6cnnn6)ccc(Cl)c5F)=CC(=O)N43)[nH]2)cn1` (single isomer, unassigned) [Example 225], for which the IC50 at human plasma kallikrein was 16.6 nM; at Factor XIa it was 2.6 nM.

As to `NC(=O)c1ccc(-c2cnc([C@H]3CC[C@@H]4CC(c5c(-n6cnnn6)ccc(Cl)c5F)=CC(=O)N43)[nH]2)cn1` (single isomer, unassigned) [Example 226], the IC50 was found to be 38.4 nM on human plasma kallikrein and 10.2 nM on Factor XIa.

On to `O=C1C=C(c2c(-n3cnnn3)ccc(Cl)c2F)C[C@H]2CC[C@@H](c3ncc(-c4ccc(CO)nc4F)[nH]3)N12` (single isomer, unassigned) [Example 235], for which the values for the IC50 on human plasma kallikrein and on Factor XIa were 21.1 nM and 4.7 nM, respectively.

`O=C1C=C(c2c(-n3cnnn3)ccc(Cl)c2F)C[C@H]2CC[C@H](c3ncc(-c4c[nH]nc4C(F)(F)F)[nH]3)N12` (single isomer, unassigned) [Example 239, (3*R,8a*R)-7-(3-Chloro-2-fluoro-6-(1H-tetrazol-1-yl)phenyl)-3-(5-(3-(trifluoromethyl)-1H-pyrazol-4-yl)-1H-imidazol-2-yl)-2,3,8,8a-tetrahydroindolizin-5(1H)-one]: the half-maximal inhibitory concentration (IC50) came out at 15.9 nM at human plasma kallikrein and 1.5 nM at Factor XIa.

As for `O=C1C=C(c2c(-n3cnnn3)ccc(Cl)c2F)C[C@H]2CC[C@@H](c3ncc(-c4c[nH]nc4C(F)(F)F)[nH]3)N12` (single isomer, unassigned) [Example 240, (3*S,8a*R)-7-(3-Chloro-2-fluoro-6-(1H-tetrazol-1-yl)phenyl)-3-(5-(3-(trifluoromethyl)-1H-pyrazol-4-yl)-1H-imidazol-2-yl)-2,3,8,8a-tetrahydroindolizin-5(1H)-one], the IC50 on human plasma kallikrein is 12.9 nM; at Factor XIa it was 0.6 nM.

Regarding `O=C1Cc2cc(-c3cnc([C@@H]4CC[C@@H]5CC(c6c(-n7cnnn7)ccc(Cl)c6F)=CC(=O)N54)[nH]3)ccc2N1` (single isomer, unassigned) [Example 284], the IC50 at human plasma kallikrein turned out to be 3.5 nM; at Factor XIa it was 1.3 nM.

Regarding `O=C1C=C(c2c(-n3cnnn3)ccc(Cl)c2F)C[C@H]2CC[C@@H](c3ncc(-c4ccc5[nH]c(=O)[nH]c5c4)[nH]3)N12` (single isomer, unassigned) [Example 286], the figures for the IC50 on human plasma kallikrein and on Factor XIa were 1.1 nM and 1.5 nM, respectively.

As for `CCC(=O)Nc1ccccc1-c1c[nH]c([C@@H]2CC[C@@H]3CC(c4c(-n5cnnn5)ccc(Cl)c4F)=CC(=O)N32)n1` (single isomer, unassigned) [Example 295, N-(2-(2-((3S,8aR*)-7-(3-Chloro-2-fluoro-6-(1H-tetrazol-1-yl)phenyl)-5-oxo-1,2,3,5,8,8a-hexahydroindolizin-3-yl)-1H-imidazol-4-yl)phenyl)propionamide], the results for the IC50 on human plasma kallikrein and on Factor XIa were 2.6 nM and 0.7 nM, respectively.

For orientation: IC50 means the concentration that gives 50% inhibition.

(Values after US20230295157A1, “3-(1H-IMIDAZOL-2-YL)-2,3,8,8A-TETRAHYDROINDOLIZIN-5(1H)-ONE DERIVATIVES USEFUL AS FACTOR XIA INHIBITORS” (JANSSEN PHARMACEUTICA NV, priority 2020, published 2023).)
